Measurements: patent US6887879B2, “Pharmaceutical combination of antiviral agents” (priority 1999, dated 2005)
Where two headings read alike, the source gives them in different places.

What was measured:
[1] = system: recombinant HXB2-D 106A/181C; assay: microbe, parasite or virus in culture; type: cell-based, HIV-1; details: Human immunodeficiency virus 1, HXB2, read-out: EC50 in CBMCs
Procedure: (§1) HIV-1IIIB laboratory strain and HXB2-D recombinant of HIV-1 were kindly supplied by R. C. Gallo (Institute of Human Virology, Baltimore, Md.). […] The recombinant viruses were generated by transfection of proviral DNA into MT-4 cells with Lipofectamine using the protocol recommended by the manufacturer .(Gibco BRL, Montreal, Canada). […] Stock viruses were prepared from clarified culture supernatants by centrifugation and stored at −70° C. The viruses were titrated by limited dilution with a 4-fold serial dilution.

[2] = system: recombinant HXB2-D 10R/46I/63P/82T/84V; assay: microbe, parasite or virus in culture; type: cell-based, HIV-1; details: Human immunodeficiency virus 1, HXB2, read-out: EC50 in CBMCs
Procedure: as §1

[3] = system: recombinant HXB2-D 184V; assay: microbe, parasite or virus in culture; type: cell-based, HIV-1; details: Human immunodeficiency virus 1, HXB2, read-out: EC50 in CBMCs
Procedure: as §1

[4] = system: recombinant HXB2-D 41L/215Y/184V; assay: microbe, parasite or virus in culture; type: cell-based, HIV-1; details: for EC50: Human immunodeficiency virus 1, HXB2, read-out: EC50 in CBMCs
Procedure: as §1

[5] = system: recombinant HXB2-D 41L/70R/215Y/219Q; assay: microbe, parasite or virus in culture; type: cell-based, HIV-1; details: for sensitivity of AZT resistant virus, in words: 41L, 70R, 215Y and 219Q, CBMCs, also observed in MT-2 cells; for EC50: Human immunodeficiency virus 1, HXB2, read-out: EC50 in CBMCs
Procedure: as §1

[6] = system: recombinant HXB2-D 65R; assay: microbe, parasite or virus in culture; type: cell-based, HIV-1; details: Human immunodeficiency virus 1, HXB2, read-out: EC50 in CBMCs
Procedure: as §1

[7] = system: recombinant HXB2-D 74V; assay: microbe, parasite or virus in culture; type: cell-based, HIV-1; details: Human immunodeficiency virus 1, HXB2, read-out: EC50 in CBMCs
Procedure: as §1

[8] = system: recombinant HXB2-D WT; assay: microbe, parasite or virus in culture; type: cell-based, HIV-1; details: Human immunodeficiency virus 1, HXB2, read-out: EC50 in CBMCs
Procedure: as §1

[9] = system: HIV-1 clinical isolate 4246; assay: Antiviral assay, HIV-1 clinical isolate 4246, CBMCs; type: cell-based; details: Human immunodeficiency virus 1, read-out: EC50 in CBMCs
Procedure: as §1
(§2) The population of HIV-1 in infected individual is quasispecies and the sensitivity of these different viruses found in clinical isolates to antiviral chemotherapy might be quite variable. In addition, HIV-1 isolates obtained from patients receiving long-term antiretroviral therapy might behave differently from cloned virus containing genetically engineered mutations in the RT gene. For these reasons, clinical isolates of HIV-1 from antiviral naive and drug-treated patients were assayed in PHA-stimulated CBMCs for their sensitivity to DXG and DAPD accompanied with approved antiretroviral agents. The genotype of the HIV-1 clinical isolates were determined as described above.

[10] = system: HIV-1 clinical isolate 4526; assay: Antiviral assay, HIV-1 clinical isolate 4526, CBMCs; type: cell-based; details: Human immunodeficiency virus 1, naive
Procedure: as §1, §2

[11] = system: HIV-1 clinical isolate 3350; assay: microbe, parasite or virus in culture; type: cell-based; details: for EC50: Human immunodeficiency virus 1, read-out: EC50 in CBMCs; for decreased susceptibility compared to the lamivudine and AZT sensitive isolates: isolate 3350, 184V
Procedure: as §1, §2

[12] = system: HIV-1 clinical isolate 3887; assay: microbe, parasite or virus in culture; type: cell-based; details: Human immunodeficiency virus 1, read-out: EC50 in CBMCs
Procedure: as §1, §2

[13] = system: HIV-1 clinical isolate 4205; assay: microbe, parasite or virus in culture; type: cell-based; details: for EC50: Human immunodeficiency virus 1, read-out: EC50 in CBMCs; for decreased susceptibility compared to the lamivudine and AZT sensitive isolates: isolate 4205, 184V
Procedure: as §1, §2

[14] = system: HIV-1 clinical isolate 4242; assay: microbe, parasite or virus in culture; type: cell-based; details: for sensitivity of isolate 4242, in words: 41L/70R/215Y in RT; for EC50: Human immunodeficiency virus 1, read-out: EC50 in CBMCs
Procedure: as §1, §2

[15] = system: HIV-1 clinical isolate 4833; assay: microbe, parasite or virus in culture; type: cell-based; details: Human immunodeficiency virus 1, therapy Saquinavir (48 weeks), read-out: EC50 in CBMCs
Procedure: as §1, §2

[16] = system: HIV-1 clinical isolate 4877; assay: microbe, parasite or virus in culture; type: cell-based; details: Human immunodeficiency virus 1, read-out: EC50 in CBMCs
Procedure: as §1, §2

[17] = system: HIV-1 clinical isolate 4924; assay: microbe, parasite or virus in culture; type: cell-based
Procedure: as §1, §2

[18] = Cytotoxicity, [3H]-thymidine uptake, PBMC; type: cell-based; details: human, PHA-stimulated PBMCs
Procedure: (§3) The cellular toxicity of the BCH compounds were assessed on various cells using [^3H]-thymidine uptake. The various cells, including Molt-4, HT1080, DU-145, HepG 2 and HSF, were plated at a concentration of 1-2×10^3 cells per well (96 well plates). However, PHA-stimulated PBMCs were cultured at a concentration of 4×10^4. After a 24 hr incubation period, 10-fold serial diluted compounds (10^−4 M to 10^−10 M) were added to the culture medium and the cells were further incubated for 72 hrs. [^3H]-thymidine was added during the final 18 hr incubation period. After incubation with the [^3H]-thymidine, the cells were washed once with PBS, treated with trypsin it the cells were adherent, and then resuspended in water (hypotonic lysing of cells) The cellular extract was applied directly to a Tomtec Harvester 96. Using this instrument the extracted DNA is adsorbed onto filters, washed and the incorporated [^3H]-thymidine is then counted.

[19] = Cytotoxicity, [3H]-thymidine uptake, Molt-4; type: cell-based; details: human, Molt-4 cells
Procedure: as §3

[20] = Cytotoxicity, [3H]-thymidine uptake, HT-1080; type: cell-based; details: human, HT-1080 cells
Procedure: as §3

[21] = Cytotoxicity, [3H]-thymidine uptake, HepG2; type: cell-based; details: human, HepG2 cells
Procedure: as §3

[22] = Cytotoxicity, [3H]-thymidine uptake, DU145; type: cell-based; details: human, DU145 cells
Procedure: as §3

[23] = Cytotoxicity, [3H]-thymidine uptake, HSF; type: cell-based; details: human, human skin fibroblasts (HSF)
Procedure: as §3

[24] = system: CBMCs, MT-2, H9, Jurkat and U937; assay: Cytotoxicity, WST-1 cell viability assay; type: cell-based, human; details: WST-1, MT-2, H9, Jurkat and U937
Procedure: The cellular toxicity of the compounds was also tested by WST-1 staining through assessing proliferation of MT-2, H9, Jurkat, U937, and CBMCs. The established cell lines were cultured in RPMI medium in 96-well plates at a density of 5×10^4 cells/well while CBMCs were plated at a concentration of 0.5×10^6/well. A 10-fold serial diluted (10^−4−10^−7 M) compound was added at day zero. At day 4, the cells were passaged by changing half medium containing appropriately diluted compound. The cell activities were assessed at day 7 using the WST-1 reagent (Boehringer Mannheim) following the protocol provided by the supplier.

[25] = system: HIV-1IIIB; assay: Anti-HIV-1 antiviral assay, laboratory strain HIV-1IIIB, RT activity in culture supernatants
Procedure: Most experiments were performed with a laboratory strain HIV-1III. […] The cells were incubated with virus using the indicated multiplicity of infection (MOI) for 2-3 hrs. The MOI used for each experiment was dependent upon the cell line and virus strain used, and was generally in the range of 0.005 to 0.5. For example, in assays performed using the established cell line MT-2, HIV-1IIIB at an MOI of 0.005 was used to infect cells. The unbound virus was then removed by washing the cells, followed by plating the cells into a 96-well plate. The infected cells were cultured in the presence of a serial concentrations of the test compound for 5-7 days. The anti-HIV-1 efficacy was determined by testing for HIV-1 RT activity in the cell culture supernatants. All assays were performed in duplicate and at least two independent experiments were performed. […] The susceptibilities of the HIV-1 variants to antiretroviral agents are expressed as the mean of the EC50 determinations.

[26] = target: T1, wt HIV-1 RT (Human immunodeficiency virus type 1 group M subtype B, UniProt P04585); assay: Chain elongation/termination assay; type: biochemical; details: HIV-PBS template, dPR primer, raising inhibitor concentration
T1 construct: Wild type (wt) version of recombinant HIV-1 RT were expressed with a histidine tag; histidine tag; made in house; host or cells: E. coli
Procedure: RT inhibition assay. The inhibition of HIV-1 RT RNA dependent DNA polymerase activity of DXG-TP was assessed under steady-state enzymatic kinetics by employing homopolymeric RNA templates/DNA primers (T/P) and a heteropolymeric RNA template/DNA primer. The heteropolymeric RNA template contains the HIV-1 primer binding sequence, US and R regions (designated as HIV-PBS). […] The oligodeoxynucleotide primer (dPR) is an 18-mer (5′-[…]-3′) which is complementary to the HIV-1 primer binding sequence. […] Inhibition of dNTP incorporation/chain termination. […] HIV-PBS RNA template and dPR DNA primer were used in this system. The RT reactions were performed in […] containing 50 mM Tris (pH 7.8), 75 mM KCl, 10 mM MgCl2, 100 μM of dNTPs. […] The reactions were allowed to proceed at 37° C. for 60 min in the presence or absence of inhibitors. The transcribed DNA products were separated on a 5% denaturing polyacrylamide gel and visualized by exposure to X-ray film.
The chain elongation/termination assay provides a method to directly visualize the products of incorporation of dideoxynucleotide monophosphates into nascent DNA by monitoring the reaction products using polyacrylamide gel electrophoresis. The experiment was performed using wt HIV-1 RT, and HIV-PBS heteropolymeric template, and [^32p]ATP labeled dPR primer in the presence of various concentrations of RT inhibitor. […] As comparison, NNRTI nevirapine was also used in the assay.

[27] = Human immunodeficiency virus 1, read-out: EC50 in CBMCs
[28] = Human immunodeficiency virus 1, H9, read-out: EC50, mean values ± SD
[29] = Human immunodeficiency virus 1, Jurkat, read-out: EC50, mean values ± SD
[30] = Human immunodeficiency virus 1, MT2, read-out: EC50, mean values ± SD
[31] = Human immunodeficiency virus 1, MT4, read-out: EC50, mean values ± SD
[32] = Human immunodeficiency virus 1, U-937
[33] = Human immunodeficiency virus 1, read-out: EC50, mean values ± SD

Compound	EC50 [1] [nM]	EC50 [2] [nM]	EC50 [3] [nM]	EC50 [4] [nM]	sensitivity of AZT resistant virus, in words [5]	EC50 [5] [nM]	EC50 [6] [nM]	EC50 [7] [nM]	EC50 [8] [nM]	EC50 [9] [nM]	EC50 [10] [nM]	EC50 [11] [nM]	decreased susceptibility compared to the lamivudine and AZT sensitive isolates [11] [fold]	EC50 [12] [nM]	EC50 [13] [nM]	decreased susceptibility compared to the lamivudine and AZT sensitive isolates [13] [fold]	sensitivity of isolate 4242, in words [14]	EC50 [14] [nM]	EC50 [16] [nM]	EC50 [17, 27] [nM]	other results
Nc1nc2c(ncn2[C@H]2CO[C@@H](CO)O2)c(=O)[nH]1 [DXG, (−)-β-D-1,3-dioxolane guanine]	50 ± 7	120 ± 30	440 ± 70	410 ± 100	remained completely sensitive	240 ± 20	1200 ± 200	1300 ± 800	210 ± 50	120 ± 80	55 ± 27	650 ± 330	~5	180 ± 7	1100 ± 1190	~5	remained sensitive	210 ± 7	45	20	decreased sensitivity ([4]; 41L and 215Y combined with 184V): ~2 fold; EC50 [15]: 170 ± 60 nM; CC50 at 72 h [18]: > 500000 nM; CC50 at 72 h [19]: > 500000 nM; CC50 at 72 h [20]: > 500000 nM; CC50 at 72 h [21]: > 500000 nM; CC50 at 72 h [22]: > 500000 nM; CC50 at 72 h [23]: ≥ 500000 nM; no toxicity up to (highest concentration tested) [24]: ≥ 100 µM; EC50 [25, 28]: 60 ± 50 nM; EC50 [25, 29]: 340 ± 140 nM; EC50 [25, 30]: 85 nM; EC50 [25, 31]: 51 ± 9 nM; EC50 [25, 32]: 410 nM; EC50 [25, 33]: 46 nM; anti-HIV-1 efficacy fold less than that of AZT ([25]; various cells): 5-10 fold
Cc1ccnc2c1NC(=O)c1cccnc1N2C1CC1 [nevirapine, reference compound]	> 10000																		65	> 10000	EC50 ([17]; Human immunodeficiency virus 1): > 10000 nM; chain termination / full-length products, in words [26]: showed the decrease of the full-length DNA products, but there were no extra chain termination bands generated
Nc1nc(N)c2ncn([C@H]3CO[C@@H](CO)O3)c2n1 [DAPD, (−)- -D-2,6-diaminopurine-1,3-dioxolane]		1370 ± 60	2100 ± 200	2300 ± 50	remained completely sensitive	1250 ± 590	6500 ± 2100	6600 ± 3400	1100 ± 160	410 ± 20	850 ± 71	3300 ± 1200	~5	190 ± 120	4100 ± 350	~5	remained sensitive	880 ± 300	260	170	EC50 [15]: 630 ± 380 nM; CC50 at 72 h [18]: > 500000 nM; CC50 at 72 h [19]: > 500000 nM; CC50 at 72 h [20]: > 500000 nM; CC50 at 72 h [21]: > 500000 nM; CC50 at 72 h [22]: > 500000 nM; CC50 at 72 h [23]: > 500000 nM; EC50 [25, 28]: 75 ± 40 nM; EC50 [25, 29]: 1370 ± 720 nM; EC50 [25, 30]: 540 nM; EC50 [25, 31]: 940 ± 28 nM; EC50 [25, 32]: 1300 nM; EC50 [25, 33]: 970 nM; EC50 fold higher than those for DXG ([25]; various cells): 5-20 fold
